Experimental data: article PMC6630796, “Spiroindolone Analogues as Potential Hypoglycemic with Dual Inhibitory Activity on α-Amylase and α-Glucosidase” (Molecules, 2019)

Tests used:
[1] = target: T1, α-amylase from Aspergillus oryzae (Aspergillus oryzae, UniProt P0C1B3); assay: biochemical; conditions: for α-Amylase Selectivity: IC50 (α-glucosidase)/IC50 (α-amylase)
T1 construct: purchased Sigma Aldrich
Procedure: Briefly, 250 μL (0.4 mg/mL) of sample was preincubated with 250 μL of α-amylase solution for 10 min at 25 °C in one set of tubes. In another set of tubes α-amylase was preincubated with 250 μL of phosphate buffer (pH 6.9). 250 μL of starch solution at increasing concentrations (0.2–1% (w/v)) was added to both sets of reaction mixtures to start the reaction. The mixture was then incubated for 10 min at 25 °C and then boiled for 15 min after the addition of 250 μL of DNS to stop the reaction. The amount of reducing sugars released was determined spectrophotometrically using a maltose standard curve and converted to reaction velocities.
(§1) The inhibitory concentration 50% (IC50) values were determined from the plots of percent inhibition versus log inhibitor concentration and calculated by logarithmic regression analysis from the mean inhibitory values.

[2] = target: T2, α-Glucosidase type 1 from baker’s yeast (Saccharomyces cerevisiae, UniProt P53341); assay: α-Glucosidase inhibition assay (p-nitrophenyl α-D-glucopyranoside, 405 nm); assay type: biochemical; conditions: for α-Glucosidase Selectivity: IC50 (α-amylase)/IC50 (α-glucosidase)
T2 construct: purchased Sigma-Aldrich G5003
Procedure: Sodium phosphate buffer (0.1 M) was adjusted by 0.1 N HCl to pH 7.0 with a pH meter (Thermo Fisher Scientific Inc., Waltham, MA, USA). p-Nitrophenyl α-D-glucopyranoside (10 mM) and α-glucosidase solutions (1 U/mL) were solubilized in 0.1 M sodium phosphate buffer (pH 7.0). All the reagents were manufactured shortly before use and warmed to 37 °C in a water bath. Sodium phosphate buffer (0.1 M, 158 μL per well) was added to a 96-well plate. α-Glucosidase (20 μL) and 2 μL of sample were added to 20 μL of p-nitrophenyl α-D-glucopyranoside. In the 200-μL final reaction volume (0.02 U/well, 0.1 U/mL) the substrate concentration was adjusted to […]. The background signal due to the sample color was measured at 405 nm with the PerkinElmer Wallac Victor3 spectrophotometer (PerkinElmer, Waltham, MA, USA) prior to adding the enzyme. Immediately following α-glucosidase addition, absorbance was measured at 405 nm 8 times at 1 min intervals.
as §1

T2 sequence (P53341 whole entry): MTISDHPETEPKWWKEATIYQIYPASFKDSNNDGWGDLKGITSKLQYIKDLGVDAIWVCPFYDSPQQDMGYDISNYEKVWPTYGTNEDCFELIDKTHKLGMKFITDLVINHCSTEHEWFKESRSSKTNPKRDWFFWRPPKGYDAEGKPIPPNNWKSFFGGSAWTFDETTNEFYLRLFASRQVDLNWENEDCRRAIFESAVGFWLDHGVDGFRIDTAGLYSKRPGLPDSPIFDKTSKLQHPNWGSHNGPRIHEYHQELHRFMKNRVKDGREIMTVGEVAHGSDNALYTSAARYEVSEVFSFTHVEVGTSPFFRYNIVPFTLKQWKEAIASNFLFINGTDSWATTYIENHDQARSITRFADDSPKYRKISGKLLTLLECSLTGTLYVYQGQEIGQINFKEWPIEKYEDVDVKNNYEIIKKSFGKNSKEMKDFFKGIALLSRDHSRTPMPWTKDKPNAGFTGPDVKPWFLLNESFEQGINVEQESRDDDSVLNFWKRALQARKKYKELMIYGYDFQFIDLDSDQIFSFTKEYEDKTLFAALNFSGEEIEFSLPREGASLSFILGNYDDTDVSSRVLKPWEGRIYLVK

Q: For `O=C(c1ccccc1)C1C(c2cc3ccccc3o2)C2CSCN2[C@@]12C(=O)Nc1ccc(Cl)cc12` (stereo partly drawn) [Compound 5a, (3S)-7′-(Benzofuran-2-yl)-6′-benzoyl-5-chloro-1′,6′,7′,7a′-tetrahydro-3′H-spiro[indoline-3,5′-pyrrolo[1,2-c]thiazol]-2-one], which IC50 [1] is on record?
A: Its IC50 is 693.22 ± 0.1 µM.

Q: What about the “α-Amylase Selectivity” value [1] of the same compound?
A: The value was 0.67.

Q: And the IC50 [2]?
A: The IC50 was 465.12 ± 0.12 µM.

Q: What about the “α-Glucosidase Selectivity” value [2] of the same compound?
A: The value was 1.49.

Q: And the melting point?
A: Its melting point is 132 to 133 °C.

Q: With `O=C(c1ccccc1)C1C(c2cc3ccccc3o2)C2C3CCCCC3CN2[C@@]12C(=O)Nc1ccc(Cl)cc12` (stereo partly drawn) [Compound 5b, (3S)-1′-(Benzofuran-2-yl)-2′-benzoyl-5-chloro-1′,2′,5′,5a′,6′,7′,8′,9′,9a′,9b′-decahydrospiro[indoline-3,3′-pyrrolo[2,1-a]isoindol]-2-one] as the compound, how does the melting point read?
A: The melting point was 120 to 122 °C.

Q: What does the source list for `O=C(c1ccc(F)cc1)C1C(c2cc3ccccc3o2)C2CSCN2[C@@]12C(=O)Nc1ccc(Cl)cc12` (stereo partly drawn) [Compound 5c, (3S)-7′-(Benzofuran-2-yl)-5-chloro-6′-(4-fluorobenzoyl)-1′,6′,7′,7a′-tetrahydro-3′H-spiro[indoline-3,5′-pyrrolo[1,2-c]thiazol]-2-one]?
A: IC50 [1]: 718 ± 0.27 µM; α-Amylase Selectivity [1]: 0.81; IC50 [2]: 585.11 ± 0.02 µM; α-Glucosidase Selectivity [2]: 1.22; melting point: 110 to 112 °C

Q: Which melting point does the source give for `O=C(c1ccc(F)cc1)C1C(c2cc3ccccc3o2)C2C3CCCCC3CN2[C@@]12C(=O)Nc1ccc(Cl)cc12` (stereo partly drawn) [Compound 5d, (3S)-1′-(benzofuran-2-yl)-5-chloro-2′-(4-fluorobenzoyl)-1′,2′,5′,5a′,6′,7′,8′,9′,9a′,9b′-decahydrospiro-[indoline-3,3′-pyrrolo[2,1-a]isoindol]-2-one] here?
A: Its melting point is 125 to 127 °C.

Q: Which melting point does the source give for `O=C(c1ccc(F)cc1)C1C(c2cc3ccccc3o2)C2C3CCCCC3CN2[C@@]12C(=O)Nc1ccc(Br)cc12` (stereo partly drawn) [Compound 5e, (3S)-1′-(Benzofuran-2-yl)-5-bromo-2′-(4-fluorobenzoyl)-1′,2′,5′,5a′,6′,7′,8′,9′,9a′,9b′-decahydrospiro-[indoline-3,3′-pyrrolo[2,1-a]isoindol]-2-one] here?
A: The melting point was 125 to 127 °C.

Q: With `O=C(c1ccc(Br)cc1)C1C(c2cc3ccccc3o2)C2C3CCCCC3CN2[C@@]12C(=O)Nc1ccc(Cl)cc12` (stereo partly drawn) [Compound 5f, (3S)-1′-(Benzofuran-2-yl)-2′-(4-bromobenzoyl)-5-chloro-1′,2′,5′,5a′,6′,7′,8′,9′,9a′,9b′-decahydrospiro-[indoline-3,3′-pyrrolo[2,1-a]isoindol]-2-one] as the compound, how does the melting point read?
A: Its melting point is 120 to 121 °C.

Q: Which results are given for `O=C(c1ccc(Br)cc1)C1C(c2cc3ccccc3o2)C2CSCN2[C@@]12C(=O)Nc1ccc(Br)cc12` (stereo partly drawn) [Compound 5h, (3S)-7′-(Benzofuran-2-yl)-5-bromo-6′-(4-bromobenzoyl)-1′,6′,7′,7a′-tetrahydro-3′H-spiro[indoline-3,5′-pyrrolo[1,2-c]thiazol]-2-one]?
A: IC50 [1]: 589.04 ± 0.25 µM; α-Amylase Selectivity [1]: 0.83; IC50 [2]: 494.1 ± 0.04 µM; α-Glucosidase Selectivity [2]: 1.19; melting point: 118 to 120 °C

Q: Which results are given for `O=C(c1ccc(Br)cc1)C1C(c2cc3ccccc3o2)C2CSCN2[C@@]12C(=O)Nc1ccc(Cl)cc12` (stereo partly drawn) [Compound 5i, (3S)-7′-(Benzofuran-2-yl)-6′-(4-bromobenzoyl)-5-chloro-1′,6′,7′,7a′-tetrahydro-3′H-spiro[indoline-3,5′-pyrrolo[1,2-c]thiazol]-2-one]?
A: IC50 [1]: 779.08 ± 0.51 µM; α-Amylase Selectivity [1]: 0.87; IC50 [2]: 684.12 ± 0.35 µM; α-Glucosidase Selectivity [2]: 1.13; melting point: 144 to 145 °C

Q: What does the source list for `O=C(c1ccc(C(F)(F)F)cc1)C1C(c2cc3ccccc3o2)C2CSCN2[C@@]12C(=O)Nc1ccc(Cl)cc12` (stereo partly drawn) [Compound 5l, (3S)-7′-(Benzofuran-2-yl)-5-chloro-6′-(4-(trifluoromethyl)benzoyl)-1′,6′,7′,7a′-tetrahydro-3′H-spiro-[indoline-3,5′-pyrrolo[1,2-c]thiazol]-2-one]?
A: IC50 [1]: 558.07 ± 0.18 µM; α-Amylase Selectivity [1]: 0.74; IC50 [2]: 414.1 ± 0.52 µM; melting point: 110 to 112 °C

Q: Which melting point does the source give for `O=C(c1ccc(F)cc1)C1C(c2cc3ccccc3o2)C2C3CCCCC3CN2[C@@]12C(=O)Nc1ccccc12` (stereo partly drawn) [Compound 5m, (3S)-1′-(Benzofuran-2-yl)-2′-(4-fluorobenzoyl)-1′,2′,5′,5a′,6′,7′,8′,9′,9a′,9b′-decahydrospiro[indoline-3,3′-pyrrolo[2,1-a]isoindol]-2-one] here?
A: The melting point was 137 to 138 °C.

Q: For `O=C(c1ccc(Br)cc1)C1C(c2cc3ccccc3o2)C2C3CCCCC3CN2[C@@]12C(=O)Nc1ccccc12` (stereo partly drawn) [Compound 5n, (3S)-1′-(Benzofuran-2-yl)-2′-(4-bromobenzoyl)-1′,2′,5′,5a′,6′,7′,8′,9′,9a′,9b′-decahydrospiro[indoline-3,3′-pyrrolo[2,1-a]isoindol]-2-one], which melting point is on record?
A: The melting point was 118 to 120 °C.

Q: With `O=C(c1ccc(Cl)cc1)C1C(c2cc3ccccc3o2)C2C3CCCCC3CN2[C@@]12C(=O)Nc1ccc(Cl)cc12` (stereo partly drawn) [Compound 5o, (3S)-1′-(Benzofuran-2-yl)-5-chloro-2′-(4-chlorobenzoyl)-1′,2′,5′,5a′,6′,7′,8′,9′,9a′,9b′-decahydrospiro-[indoline-3,3′-pyrrolo[2,1-a]isoindol]-2-one] as the compound, how does the melting point read?
A: The melting point was 125 to 126 °C.

Q: Which results are given for `O=C(c1ccc(Cl)cc1)C1C(c2cc3ccccc3o2)C2CSCN2[C@@]12C(=O)Nc1ccc(Cl)cc12` (stereo partly drawn) [Compound 5p, (3S)-7′-(Benzofuran-2-yl)-5-chloro-6′-(4-chlorobenzoyl)-1′,6′,7′,7a′-tetrahydro-3′H-spiro[indoline-3,5′-pyrrolo[1,2-c]thiazol]-2-one]?
A: IC50 [1]: 488 ± 1.11 µM; α-Amylase Selectivity [1]: 0.80; IC50 [2]: 392.1 ± 1.07 µM; α-Glucosidase Selectivity [2]: 1.24; melting point: 105 to 106 °C
